{"source": "patent US10548883B2", "about": "“Benzotriazole-derived α and β-unsaturated amide compound used as TGF-β RI inhibitor” (GENFLEET THERAPEUTICS (SHANGHAI) INC., priority 2016, dated 2020)", "key": {"[1]": {"system": "NIH/3T3 mouse embryonic cells", "assay": "Test of proliferation inhibition on NIH/3T3 mouse embryonic cells (CellTiter-Glo, with TGF-β1)", "assay_type": "cell-based", "details": "NIH3T3, 0.2 ng/mL TGF-β1, 72 h", "method": "Promega's Luminescent Cell Viability Assay (CellTiter-Glo® method, i.e. ATP fluorescence activity detection and analysis), the compound is added to the cell culture plate for incubation. A substrate buffer for detecting intracellular ATP content was added on the day of detection. Slightly shake and centrifuge at 1000 rpm for 1 min. Tested after standing for 10 min. The assay plate was analyzed using Envision multifunctional enzyme marker of PerkinElmer, Inc., and the analysis mode was fluorescence detection, and the data was expressed by the reading of chemiluminescence signal at 400-700 nm.\ni) When the cell growth coverage is about 70%, the cell layer was washed with 10 mL of Duchenne phosphate buffer (D-PBS) which is calcium- and magnesium-free, then 2 mL of 0.25% trypsin-EDTA digest was added. The cell culture flask was placed in a CO2 carbon dioxide incubator at 37° C. and incubated for 3-5 min, then 8 mL of complete culture medium containing 2% FBS DMEM cells was added, and the cells were puffed evenly into single cell and counted by Vi-cell cytometer, and NIH/3T3 cell suspension was diluted to 0.375×10^5/mL cells.\nii) 50 μL of 2% DMEM-containing medium was added around the 384-well cell culture plate, then 40 μL of cell suspension was added to the remaining wells to 1500 cells per well. The distribution of the cells was observed under a microscope, and the cell plates were placed in a cell culture incubator with 5% CO2 at 37° C.\niii) Dilution of the compound refers to the preparation of the compound.\niv) A mixture of 2% fetal bovine serum containing 1 ng/mL TGF-β1 in DMEM medium was added manually to the compound intermediate plate, 20 μL per well.\nv) The compound intermediate plate was shook slightly for 10 sec at 1000 rpm/min and centrifuge for 10 sec.\nvi) 10 uL of the mixed liquid from steps 4 and 5 of each well was transferred to the inoculated cell plate to a final volume of 50 μL by using a Bravo liquid workstation, and the final concentration of TGF-β1 was diluted to 0.2 ng/mL, and centrifuged for 10 sec at 1000 rpm/min. The plates were placed in an incubator with 5% carbon dioxide at 37° C., 5% carbon dioxide for 72 h. The final concentration of the compound is: (unit: μM)\nvii) The cell plate containing the compound was cultured in a cell incubator with 5% CO2 at 37° C. for 3 days.\nviii) After that, 25 μL of ATP fluorescence activity detection solution was added to each well of the cell plate, then shook gently for about 1 min and centrifuged at 500 rpm/min for about 30 sec, and the reading was performed in an Envision instrument after standing at room temperature for 10 min in the dark."}, "[2]": {"molecular_target": "T1, TGF-βRI (Homo sapiens, UniProt P36897)", "T1 sequence (P36897 34-503)": "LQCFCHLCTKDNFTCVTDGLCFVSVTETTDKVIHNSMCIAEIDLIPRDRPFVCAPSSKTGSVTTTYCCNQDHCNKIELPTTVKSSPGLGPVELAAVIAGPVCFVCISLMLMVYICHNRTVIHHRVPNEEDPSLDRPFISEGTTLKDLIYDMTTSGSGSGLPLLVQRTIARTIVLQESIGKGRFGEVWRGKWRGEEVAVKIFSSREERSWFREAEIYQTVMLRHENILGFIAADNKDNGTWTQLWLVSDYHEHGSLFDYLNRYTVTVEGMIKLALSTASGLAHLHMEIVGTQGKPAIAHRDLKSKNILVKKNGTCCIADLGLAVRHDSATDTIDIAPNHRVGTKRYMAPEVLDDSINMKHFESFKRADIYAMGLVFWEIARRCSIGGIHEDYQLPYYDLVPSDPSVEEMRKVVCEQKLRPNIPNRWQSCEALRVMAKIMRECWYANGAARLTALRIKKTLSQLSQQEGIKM", "assay": "Test of inhibitory activity of TGFβ-RI in vitro", "assay_type": "biochemical", "details": "10 μM ATP", "method": "i) Test compound: the IC50 was determined by diluting into 10 gradient points with each gradient by three-fold dilution and with a starting concentration of 5 μM.\nii) The IC50 of reference compound LDN193189 was determined by diluting into 10 gradient points with each gradient by three-fold dilution and with a starting concentration of 20 μM.\niii) The reaction system contains 10 μM ATP.\niv) Calculate the IC50 value by curve fitting when the percentage of enzyme activity (compared to the solvent group) is below 65% at the highest concentration of the sample."}}}
{"smiles": "Cc1cccc(-c2nn3c(c2-c2ccc4ncnn4c2/C=C/C(N)=O)CCC3)n1", "note": "[Embodiment 1]", "values": [{"measurement": "IC50", "setting": "[1]", "result": "500 to 2000", "unit": "nM"}, {"measurement": "IC50", "setting": "[2]", "result": "1 to 50", "unit": "nM"}]}
